In ChEMBL document CHEMBL5154828 (J Med Chem, 2022):
pEC50, pIC50: −log10 of the molar value.

Assays:
MCF7 = experiment: Antiproliferative activity against human MCF7 cells assessed as inhibition of cell growth measured after 6 days by cell titre glo luminescence assay; conditions: MCF7, 144 h
Estrogen receptor [1] = target: T1, Estrogen receptor (Homo sapiens, UniProt P03372); experiment: Induction of ERalpha degradation in human MCF7 cells incubated for 24 hrs by Western blot analysis; format: cell-based
T1 sequence (P03372 whole entry): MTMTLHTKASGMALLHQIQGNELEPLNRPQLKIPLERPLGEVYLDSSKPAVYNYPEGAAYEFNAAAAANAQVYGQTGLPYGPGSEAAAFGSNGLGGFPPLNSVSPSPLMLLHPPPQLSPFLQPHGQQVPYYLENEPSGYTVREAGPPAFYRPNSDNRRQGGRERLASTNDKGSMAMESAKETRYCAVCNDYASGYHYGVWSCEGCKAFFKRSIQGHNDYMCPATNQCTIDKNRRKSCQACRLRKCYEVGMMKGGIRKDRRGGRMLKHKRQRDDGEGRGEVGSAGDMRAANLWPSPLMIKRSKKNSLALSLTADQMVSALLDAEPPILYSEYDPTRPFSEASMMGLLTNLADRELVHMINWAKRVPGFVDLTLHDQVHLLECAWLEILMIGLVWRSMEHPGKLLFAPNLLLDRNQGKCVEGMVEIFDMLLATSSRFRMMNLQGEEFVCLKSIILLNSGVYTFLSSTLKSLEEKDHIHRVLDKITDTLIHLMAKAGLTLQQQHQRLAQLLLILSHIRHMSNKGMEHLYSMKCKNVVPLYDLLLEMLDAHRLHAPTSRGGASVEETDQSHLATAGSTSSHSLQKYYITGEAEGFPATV

Estrogen receptor [2] = target: T1, Estrogen receptor; experiment: Antagonist activity at ERalpha expressed in HEK293/Gal4 cells incubated for 24 hrs in presence of estradiol by luciferase reporter gene assay; format: cell-based
[3] = target: Voltage-gated inwardly rectifying potassium channel KCNH2 (Homo sapiens, UniProt Q12809); experiment: Inhibition of human ERG potassium channel expressed in CHO cells by patch-clamp assay; format: toxicity, cell-based
[4] = Cmax in Sprague-Dawley rat at 10 mg/kg, po measured up to 24 hrs by LC/MS/MS analysis; format: ADME, organism-based; parameters: time < 24 hrs, dose 10 mg/kg, route po; conditions: in vivo
[5] = AUC (0 to t) in Sprague-Dawley rat at 10 mg/kg, po measured up to 24 hrs by LC/MS/MS analysis; format: ADME, organism-based; parameters: time < 24 hrs, dose 10 mg/kg, route po; conditions: in vivo
Estrogen receptor beta = Estrogen receptor beta (Homo sapiens, UniProt Q92731); experiment: Antagonist activity at ERbeta expressed in HEK293/Gal4 cells incubated for 24 hrs in presence of di-arylpropionitrile by luciferase reporter gene assay
Estrogen receptor beta, sequence (Q92731 whole entry, the tested form may be a part): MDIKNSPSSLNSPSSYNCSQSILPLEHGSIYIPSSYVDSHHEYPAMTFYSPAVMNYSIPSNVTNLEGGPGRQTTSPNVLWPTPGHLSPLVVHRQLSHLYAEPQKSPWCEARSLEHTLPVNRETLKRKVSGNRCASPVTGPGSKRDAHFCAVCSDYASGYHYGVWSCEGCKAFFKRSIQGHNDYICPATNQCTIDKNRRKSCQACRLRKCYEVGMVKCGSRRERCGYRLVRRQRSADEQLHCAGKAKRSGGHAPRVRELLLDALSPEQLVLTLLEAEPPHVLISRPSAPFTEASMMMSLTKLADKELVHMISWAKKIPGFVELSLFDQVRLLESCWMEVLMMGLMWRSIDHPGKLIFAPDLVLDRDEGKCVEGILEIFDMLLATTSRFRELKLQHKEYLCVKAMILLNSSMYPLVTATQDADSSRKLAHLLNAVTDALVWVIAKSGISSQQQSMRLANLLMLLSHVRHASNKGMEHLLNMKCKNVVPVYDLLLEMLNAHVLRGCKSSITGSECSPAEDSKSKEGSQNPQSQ

Voltage-gated inwardly rectifying potassium channel KCNH2, sequence (Q12809 whole entry): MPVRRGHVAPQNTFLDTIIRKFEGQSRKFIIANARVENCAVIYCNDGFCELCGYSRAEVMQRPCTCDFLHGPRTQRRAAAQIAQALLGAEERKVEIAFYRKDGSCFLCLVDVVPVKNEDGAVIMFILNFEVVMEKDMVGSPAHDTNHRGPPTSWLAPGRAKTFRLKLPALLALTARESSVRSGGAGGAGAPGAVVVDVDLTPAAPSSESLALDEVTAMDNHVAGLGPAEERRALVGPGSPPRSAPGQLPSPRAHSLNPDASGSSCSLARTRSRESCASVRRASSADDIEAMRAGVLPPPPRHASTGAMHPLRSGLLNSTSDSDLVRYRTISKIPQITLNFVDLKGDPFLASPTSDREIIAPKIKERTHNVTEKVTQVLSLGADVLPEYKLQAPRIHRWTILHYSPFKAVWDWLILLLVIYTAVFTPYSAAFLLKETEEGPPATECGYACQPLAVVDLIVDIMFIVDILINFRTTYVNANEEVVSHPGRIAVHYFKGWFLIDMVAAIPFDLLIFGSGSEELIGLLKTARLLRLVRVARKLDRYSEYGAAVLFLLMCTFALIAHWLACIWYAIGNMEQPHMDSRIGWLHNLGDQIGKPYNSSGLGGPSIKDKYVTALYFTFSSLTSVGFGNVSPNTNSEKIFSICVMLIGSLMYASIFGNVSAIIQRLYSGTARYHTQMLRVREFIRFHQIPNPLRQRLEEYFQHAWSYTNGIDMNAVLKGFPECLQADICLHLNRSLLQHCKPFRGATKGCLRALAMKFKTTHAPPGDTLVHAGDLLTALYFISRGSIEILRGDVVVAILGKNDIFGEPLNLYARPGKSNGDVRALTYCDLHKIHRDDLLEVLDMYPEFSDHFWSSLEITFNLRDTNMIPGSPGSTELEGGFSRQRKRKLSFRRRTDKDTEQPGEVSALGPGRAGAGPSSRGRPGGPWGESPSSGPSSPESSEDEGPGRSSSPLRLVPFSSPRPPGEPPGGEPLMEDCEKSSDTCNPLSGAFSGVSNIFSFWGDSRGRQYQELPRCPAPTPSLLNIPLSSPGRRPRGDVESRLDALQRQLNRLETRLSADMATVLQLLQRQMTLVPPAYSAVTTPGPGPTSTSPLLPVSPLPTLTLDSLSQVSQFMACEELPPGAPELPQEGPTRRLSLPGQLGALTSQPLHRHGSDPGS

Compound | pIC50 (MCF7) | pEC50 (Estrogen receptor [1]) | further results
CC(F)(F)c1cc(F)ccc1-c1sc2c(ccc3[nH]ncc32)c1Oc1ccc(OC2CN(CCCF)C2)cc1F | 8.11 | – | –
CC(F)(F)c1cc(F)ccc1-c1sc2c(ccc3[nH]ncc32)c1Oc1ccc(/C=C/CN2CC(CF)C2)cc1 | 8.10 | – | –
CC(F)(F)c1cc(F)c(F)cc1-c1sc2c(ccc3[nH]ncc32)c1Oc1ccc(OC2CN(CCCF)C2)cc1 | 8.80 | 8.47 | pIC50 (Estrogen receptor [2]): 8.60
FCCCN1CC(Oc2ccc(Oc3c(-c4ccc(F)cc4CC(F)(F)F)sc4c3ccc3[nH]ncc34)cc2F)C1 | – | – | pIC50 [3]: < 4.40
FCCCN1CC(Oc2ccc(Oc3c(-c4ccc(F)cc4C4(F)CC4)sc4c3ccc3[nH]ncc34)cc2)C1 | 8.28 | – | –
CC(C)(F)c1cc(F)ccc1-c1sc2c(ccc3[nH]ncc32)c1Oc1ccc(NC2CN(CCCF)C2)cc1 | – | – | pIC50 [3]: 5.21
CC(F)(F)c1cc(Cl)ccc1-c1sc2cc(C(=O)O)ccc2c1Oc1ccc(OC2CN(CCCF)C2)cc1 | 7.46 | 8.41 | –
CC(F)(F)c1cc(F)ccc1-c1sc2cc(B(O)O)ccc2c1Oc1ccc(OCCN2CC(CF)C2)cc1 | 8.72 | 8.92 | –
FCCCN1CC(Nc2ccc(Oc3c(-c4ccc(F)cc4CC(F)(F)F)sc4c3ccc3[nH]ncc34)cc2)C1 | 9.10 | 8.66 | pIC50 (Estrogen receptor [2]): 8.89
CC(F)(F)c1cc(F)ccc1-c1sc2c(ccc3[nH]ncc32)c1Oc1c(F)cc(OCCN2CC(CF)C2)cc1F | 7.82 | – | –
COc1cc(Oc2c(-c3cc(F)c(F)cc3C(C)(F)F)sc3c2ccc2[nH]ncc23)ccc1NC1CN(CCCF)C1 | 8.77 | 8.59 | pIC50 (Estrogen receptor [2]): 8.60; pIC50 [3]: 4.81
COc1cc(Oc2c(-c3ccc(F)cc3C(C)(F)F)sc3c2ccc2[nH]ncc23)ccc1OC1CN(CCCF)C1 | 9.05 | 9.40 | pIC50 (Estrogen receptor [2]): 9.22; pIC50 [3]: < 4.40
FCC1CN(CCOc2ccc(Oc3c(-c4ccc(C(F)(F)F)cc4F)sc4c3ccc3[nH]ncc34)cc2)C1 | 6.83 | – | –
CC(F)(F)c1cc(F)c(F)cc1-c1sc2c(ccc3[nH]ncc32)c1Oc1ccc(NC2CN(CCCF)C2)cc1 | – | – | pIC50 [3]: 5.13
CC(F)(F)c1cc(F)ccc1-c1sc2cc(B(O)O)ccc2c1Oc1ccc(OCCN2CC[C@@H](CF)C2)cc1 | 8.82 | 8.66 | –
CC(F)(F)c1cc(F)ccc1-c1sc2c(ccc3[nH]ncc32)c1Oc1ccc(OCCN2CC3C(C2)C3(F)F)cc1 (centres undefined) | 8.12 | < 6.00 | –
COc1cc(Oc2c(-c3cc(F)c(F)cc3C(C)(F)F)sc3c2ccc2[nH]ncc23)ccc1OC1CN(CCCF)C1 | 8.92 | 8.52 | pIC50 (Estrogen receptor [2]): 8.85
CC(F)(F)c1cc(F)c(F)cc1-c1sc2c(ccc3[nH]ncc32)c1Oc1ccc(OC2CN(CCCF)C2)c(F)c1 | 8.55 | 8.41 | pIC50 (Estrogen receptor [2]): 8.28; pIC50 [3]: < 4.40; Cmax [4]: 132 ng/mL; AUC(0-t) at 24 h [5]: 1280 ng·h/mL
CC(F)(F)c1cc(F)ccc1-c1sc2c(ccc3[nH]ncc32)c1Oc1ccc(COCCN2CC(CF)C2)cc1 | 8.33 | < 6.00 | –

Compound | pIC50 (MCF7) | pEC50 (Estrogen receptor [1]) | further results
CC(F)(F)c1cc(Cl)ccc1-c1sc2cc(C(=O)O)ccc2c1Oc1ccc(O[C@@H]2CCN(CCCF)C2)cc1 | 8.38 | 9.00 | –
COc1cc(Oc2c(-c3ccc(F)cc3C(C)(F)F)sc3c2ccc2[nH]ncc23)ccc1NC1CN(CCCF)C1 | – | – | pIC50 [3]: 4.94
O=C(O)c1ccc2c(c1)CCCC(c1ccc(Cl)cc1Cl)=C2c1ccc(O[C@H]2CCN(CCCF)C2)cc1 [AMCENESTRANT] | 8.04 | – | pIC50 (Estrogen receptor beta): 8.07
COc1cc(Oc2c(-c3ccc(F)cc3C(C)(C)F)sc3c2ccc2[nH]ncc23)ccc1OC1CN(CCCF)C1 | 9.30 | 8.85 | pIC50 (Estrogen receptor [2]): 9.10; pIC50 [3]: < 4.40; Cmax [4]: 47 ng/mL; AUC(0-t) at 24 h [5]: 264 ng·h/mL
CC(F)(F)c1cc(Cl)ccc1-c1sc2c(ccc3[nH]ncc32)c1Oc1ccc(OC[C@H]2CCCN2CCCF)cc1 | 8.08 | < 6.00 | –
CC(F)(F)c1cc(F)ccc1-c1sc2c(ccc3[nH]ncc32)c1Oc1ccc(OC2CN(CCCF)C2)c(F)c1 | 9.10 | 8.89 | pIC50 (Estrogen receptor [2]): 9.00
CC(F)(F)c1cc(F)ccc1-c1sc2c(ccc3[nH]ncc32)c1Oc1ccc(OCCN2CC(CF)C2)cc1 | 8.96 | 9.05 | –
CC(F)(F)c1cc(F)ccc1-c1sc2cc3[nH]ncc3cc2c1Oc1ccc(/C=C/C(=O)O)cc1 | 6.32 | – | –
FCC1CN(CCOc2ccc(Oc3c(-c4ccc(OC(F)(F)F)cc4F)sc4c3ccc3[nH]ncc34)cc2)C1 | 7.41 | – | –
CC(C)(F)c1cc(F)ccc1-c1sc2c(ccc3[nH]ncc32)c1Oc1ccc(OC2CN(CCCF)C2)c(F)c1 | – | – | pIC50 [3]: < 4.40
CC(F)(c1cc(F)ccc1-c1sc2c(ccc3[nH]ncc32)c1Oc1ccc(NC2CN(CCCF)C2)cc1)C(F)(F)F (centres undefined) | 8.77 | 8.18 | –
CC(c1cc(F)ccc1-c1sc2c(ccc3[nH]ncc32)c1Oc1ccc(OC2CN(CCCF)C2)cc1)C(F)(F)F (centres undefined) | 8.66 | 8.60 | –
CC(C)(c1cc(F)ccc1-c1sc2c(ccc3[nH]ncc32)c1Oc1ccc(NC2CN(CCCF)C2)cc1)C(F)(F)F | 8.29 | – | –
CC(F)(F)c1cc(Cl)ccc1-c1sc2cc(C(=O)O)ccc2c1Oc1ccc(OCCN2CC(CF)C2)cc1 | 8.36 | 8.59 | –
CC(F)(F)c1cc(F)ccc1-c1sc2c(ccc3[nH]ncc32)c1Oc1ccc(OCCN2CC(CC#N)C2)cc1 | 8.62 | 9.40 | –
CC(F)(F)c1cc(Cl)ccc1-c1sc2c(ccc3[nH]ncc32)c1Oc1ccc(N[C@@H]2CCN(CCCF)C2)cc1 | 9.22 | 9.00 | –
CC(F)(F)c1cc(F)ccc1-c1sc2cc(B(O)O)ccc2c1Oc1ccc(/C=C/C(=O)O)cc1 | 7.62 | – | –
CC(F)(F)c1cc(Cl)ccc1-c1sc2c(ccc3[nH]ncc32)c1Oc1ccc(S(=O)(=O)C2CN(CCCF)C2)cc1 | 7.47 | – | –
CC(F)(F)c1cc(Cl)ccc1-c1sc2c(ccc3[nH]ncc32)c1Oc1ccc(OC2CN(CCCC#N)C2)cc1 | 7.09 | – | –

Compound | pIC50 (MCF7) | pEC50 (Estrogen receptor [1]) | further results
FCC1CN(CCOc2ccc(Oc3c(-c4ccc(F)cc4C4CC4)sc4c3ccc3[nH]ncc34)cc2)C1 | 8.06 | – | –
Cc1cc(Cl)cc(C)c1-c1sc2c(ccc3[nH]ncc32)c1Oc1ccc(OCCN2CC(CF)C2)cc1 | 7.53 | – | –
CC(F)(F)c1cc(F)ccc1-c1sc2c(ccc3[nH]ncc32)c1Oc1ccc(S(=O)(=O)CCN2CC(CF)C2)cc1 | 8.23 | < 6.00 | –
Oc1cccc(-c2sc3c(ccc4[nH]ncc43)c2Oc2ccc(OCCN3CC(CF)C3)cc2)c1 | < 6.00 | – | –
CC(F)(F)c1cc(F)ccc1-c1sc2c(ccc3[nH]ncc32)c1Oc1ccc(/C=C/C(=O)O)cc1 | 7.58 | – | –
CC(F)(F)c1cc(Cl)ccc1-c1sc2c(ccc3[nH]ncc32)c1Oc1ccc(O[C@@H]2CCN(CCCF)C2)cc1 | 8.59 | 9.15 | –
COc1cc(Oc2c(-c3ccc(F)cc3CC(F)(F)F)sc3c2ccc2[nH]ncc23)ccc1NC1CN(CCCF)C1 | 8.77 | 8.66 | pIC50 (Estrogen receptor [2]): 8.96
CC(F)(F)c1cc(F)ccc1-c1sc2c(ccc3[nH]ncc32)c1Oc1ccc(NC2CN(CCCF)C2)c(C(F)(F)F)c1 | 8.21 | – | –
CC(F)(F)c1cc(F)ccc1-c1sc2c(ccc3[nH]ncc32)c1Oc1ccc(OCCN2CC(CF)C2)cc1F | 8.48 | – | –
Cc1cc(C(F)(F)F)ncc1-c1sc2c(ccc3[nH]ncc32)c1Oc1ccc(OCCN2CC(CF)C2)cc1 | 6.21 | – | –
CC(F)(F)c1cc(F)ccc1-c1sc2c(ccc3[nH]ncc32)c1Oc1ccc(CCN2CC(CF)C2)cc1 | 7.83 | – | –
COc1cc(Oc2c(-c3ccc(F)cc3CC(F)(F)F)sc3c2ccc2[nH]ncc23)ccc1OC1CN(CCCF)C1 | 9.22 | 8.74 | pIC50 (Estrogen receptor [2]): 9.05
Cc1cc(F)cc(C)c1-c1sc2c(ccc3[nH]ncc32)c1Oc1ccc(OCCN2CC(CF)C2)cc1 | 7.56 | – | –
CC(F)(F)c1cc(F)ccc1-c1sc2c(ccc3[nH]ncc32)c1Oc1ccc(NC2CN(CCCF)C2)c(F)c1 | 9.10 | 8.89 | pIC50 (Estrogen receptor [2]): 8.96; pIC50 [3]: 4.56
CC(F)(F)c1cc(Cl)ccc1-c1sc2cc(C(=O)O)ccc2c1Oc1ccc(NC2CN(CCCF)C2)cc1 | 8.23 | 7.88 | –
CC(F)(F)c1cc(F)ccc1-c1sc2cc(B(O)O)ccc2c1Oc1ccc(OCCN2CC(CC#N)C2)cc1 | 8.57 | – | –
CC(F)(F)c1cc(F)ccc1-c1sc2c(ccc3[nH]ncc32)c1-c1ccc(OCCN2CC(CF)C2)cc1 | < 6.00 | – | –
CC(F)(F)c1cc(F)ccc1-c1sc2cc(B(O)O)ccc2c1Oc1ccc(OCCN2CCC(F)CC2)cc1 | 7.71 | – | –
